From the supplement of paper PMC10307832

Experiments:
Test in all cases: relative viability (nuclei count vs DMSO), 5 days (fraction); higher = more cells survive
[1] = compound: CCn1c(-c2nonc2N)nc2c(C#CC(C)(C)O)ncc(OC[C@H]3CCCNC3)c21 + Cc1nc(NC(=O)N2CCC[C@H]2C(N)=O)sc1-c1ccnc(C(C)(C)C(F)(F)F)c1 [Alpelisib] (partner 2 µM)
In short: (§1)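 Lung cancer cell lines in 1536-well plates were dosed by pin tool the day after seeding, either with one drug alone or with a fixed anchor-drug dose plus five library-drug doses (not always all listed) in √10 steps. After 5 days, cells were fixed and their nuclei stained in one step (final 0.05% Triton X-100, 1% formaldehyde, 1 ug/ml Hoechst), then counted on 4× images. Relative viability is the nuclei count in treated wells divided by that in vehicle wells. Values are medians of duplicate plates.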

[2] = compound: CCn1c(-c2nonc2N)nc2c(C#CC(C)(C)O)ncc(OC[C@H]3CCCNC3)c21 + CC(=O)c1c(C)c2cnc(Nc3ccc(N4CCNCC4)cn3)nc2n(C2CCCC2)c1=O [Palbociclib] (partner 0.5 µM)
In short: as §1

[3] = compound: CCn1c(-c2nonc2N)nc2c(C#CC(C)(C)O)ncc(OC[C@H]3CCCNC3)c21 + N=C(N)NC(=N)NCCc1ccccc1 [Phenformin] (partner 250 µM)
In short: as §1

[4] = compound: CCn1c(-c2nonc2N)nc2c(C#CC(C)(C)O)ncc(OC[C@H]3CCCNC3)c21 + Cc1cc(Nc2cc(N3CCN(C)CC3)nc(Sc3ccc(NC(=O)C4CC4)cc3)n2)n[nH]1 [Tozasertib] (partner 0.1 µM)
In short: as §1

| Cell Line | relative viability ([1]; first compound 0.01 µM) | relative viability ([1]; first compound 0.03162 µM) | relative viability ([1]; first compound 0.1 µM) | relative viability ([1]; first compound 0.3162 µM) | relative viability ([1]; first compound 1 µM) | relative viability ([2]; first compound 0.01 µM) | relative viability ([2]; first compound 0.03162 µM) | relative viability ([2]; first compound 0.1 µM) | relative viability ([2]; first compound 0.3162 µM) | relative viability ([2]; first compound 1 µM) | relative viability ([3]; first compound 0.01 µM) | relative viability ([3]; first compound 0.03162 µM) | relative viability ([3]; first compound 0.1 µM) | relative viability ([3]; first compound 0.3162 µM) | relative viability ([3]; first compound 1 µM) | relative viability ([4]; first compound 0.01 µM) | relative viability ([4]; first compound 0.03162 µM) | relative viability ([4]; first compound 0.1 µM) | relative viability ([4]; first compound 0.3162 µM) | relative viability ([4]; first compound 1 µM) |
| --- | --- | --- | --- | --- | --- | --- | --- | --- | --- | --- | --- | --- | --- | --- | --- | --- | --- | --- | --- | --- |
| NCI-H1734 | 0.652 | 0.624 | 0.631 | 0.655 | 0.658 | 0.375 | 0.332 | 0.306 | 0.303 | 0.33 | 0.365 | 0.425 | 0.335 | 0.323 | 0.267 | 0.262 | 0.258 | 0.285 | 0.26 | 0.268 |
| NCI-H1755 | 0.943 | 0.944 | 0.896 | 0.916 | 0.981 | 0.451 | 0.514 | 0.463 | 0.437 | 0.422 | 0.604 | 0.606 | 0.614 | 0.613 | 0.605 | 0.617 | 0.498 | 0.572 | 0.55 | 0.61 |
| NCI-H1793 | 0.815 | 0.812 | 0.508 | 0.592 | 0.64 | 0.295 | 0.326 | – | 0.295 | 0.315 | 0.339 | 0.436 | 0.371 | 0.331 | 0.401 | 0.361 | 0.421 | 0.487 | 0.343 | 0.35 |
| NCI-H1915 | 1.06 | 1.06 | 1.02 | 1.04 | 1.08 | 0.488 | 0.545 | 0.531 | 0.487 | 0.537 | 0.384 | 0.385 | 0.36 | 0.357 | 0.36 | 0.439 | 0.424 | 0.422 | 0.413 | 0.464 |
| NCI-H1944 | 0.886 | 0.759 | 0.844 | 0.804 | 0.777 | 0.359 | 0.353 | 0.348 | 0.314 | 0.325 | 0.196 | 0.196 | 0.207 | 0.181 | 0.196 | 0.287 | 0.247 | 0.266 | 0.236 | 0.249 |
| NCI-H1975 | 0.716 | 0.656 | 0.623 | 0.543 | 0.583 | 0.484 | 0.599 | 0.51 | 0.544 | 0.305 | 0.4 | 0.394 | 0.393 | 0.389 | 0.352 | 0.768 | 0.715 | 0.757 | 0.777 | 0.658 |
| NCI-H1993 | 0.732 | 0.718 | 0.57 | 0.729 | 0.868 | 0.55 | 0.642 | 0.628 | 0.659 | 0.542 | 0.485 | 0.47 | 0.5 | 0.478 | 0.495 | 0.585 | 0.591 | 0.549 | 0.609 | 0.574 |
| NCI-H2009 | 1.15 | 1.19 | 1.22 | 1.17 | 1.18 | 0.202 | 0.223 | 0.229 | 0.186 | 0.241 | 0.473 | 0.491 | 0.519 | 0.458 | 0.452 | 0.72 | 0.811 | 0.724 | 0.668 | 0.771 |
| NCI-H2023 | 0.636 | 0.625 | 0.539 | 0.504 | 0.559 | 0.357 | 0.379 | 0.331 | 0.205 | 0.262 | 0.4 | 0.409 | 0.412 | 0.3 | 0.34 | 0.339 | 0.379 | 0.341 | 0.305 | 0.343 |
| NCI-H2085 | 0.974 | 0.866 | 0.988 | 0.865 | 0.84 | 0.49 | 0.426 | 0.481 | 0.455 | 0.48 | 0.627 | 0.694 | 0.674 | 0.706 | 0.719 | 0.81 | 0.771 | 0.811 | 0.822 | 0.729 |
| NCI-H2087 | 0.917 | 1.2 | 1.13 | 1.02 | 0.927 | 0.214 | – | 0.225 | 0.248 | 0.293 | 0.454 | 0.572 | 0.478 | 0.43 | 0.465 | 0.264 | 0.258 | 0.248 | 0.259 | 0.303 |
| NCI-H2126 | 0.72 | 0.793 | 0.74 | 0.746 | 0.753 | 0.325 | 0.319 | 0.365 | 0.335 | 0.377 | 0.565 | 0.498 | 0.513 | 0.496 | 0.478 | 0.829 | 0.885 | 0.806 | 0.817 | 0.863 |
| NCI-H2170 | 0.837 | 0.833 | 0.824 | 0.721 | 0.759 | 0.391 | 0.441 | 0.378 | 0.372 | 0.435 | 0.44 | 0.429 | 0.416 | 0.429 | 0.382 | 0.769 | 0.755 | 0.778 | 0.705 | 0.733 |
| NCI-H2228 | 0.68 | 0.854 | 0.622 | 0.651 | 0.569 | 0.686 | 0.752 | 0.821 | 0.574 | 0.467 | 0.363 | 0.36 | 0.298 | 0.277 | 0.204 | 0.222 | 0.278 | 0.229 | 0.246 | 0.252 |
| NCI-H2347 | 1.09 | 0.97 | 0.992 | 0.972 | 1.17 | 0.394 | 0.445 | 0.492 | 0.422 | 0.435 | 0.442 | 0.307 | – | 0.381 | 0.396 | 0.6 | 0.59 | – | 0.613 | 0.583 |
| NCI-H2405 | 0.839 | 0.782 | – | 0.749 | 0.855 | 0.52 | 0.539 | 0.472 | 0.481 | 0.511 | 0.402 | 0.385 | 0.295 | 0.355 | 0.344 | 0.768 | 0.806 | 0.692 | 0.71 | 0.706 |
